Laboratory results as given in paper PMC10804612, “In vivo validation of psilacetin as a prodrug yielding modestly lower peripheral psilocin exposure than psilocybin” (Frontiers in Psychiatry, 2024).

Tests used:
[1] = test system: head twitch responses; set-up: method as in PMID 33860183; conditions: equimolar basis; cited from earlier work
[2] = Plasma psilocin by LC-MS/MS after intraperitoneal psilocybin or psilacetin fumarate
[3] = cited from earlier work
[4] = test system: 5-HT2A receptor; set-up: method as in PMID 36407948, PMID 33860183; conditions: in vitro; cited from earlier work

Compound	head twitch response potency [1] [µmol/kg]	k el ([2]; both, C57Bl6/J, mouse, plasma, ip) [s⁻¹]	half-life ([2]; both, C57Bl6/J, mouse, plasma, ip, psilocin half-life (T1/2), plasma psilocin from psilocybin or psilacetin, mice) [min]	plasma psilocin concentration by 4 h after administration ([2]; lower limit of quantitation 0.1 ng/mL, approximately 6 half-lives)	psilocin half-life ([2]; plasma psilocin, mice)	terminal elimination rate of psilocin, range ([2]; range across tested conditions)	plasma concentrations in human pharmacokinetic studies [3] [ng/mL]	receptor potency, fold lower than that of psilocin [4]
CN(C)CCc1c[nH]c2cccc(O)c12 [psilocin]	0.81	0.000433	~30	near or below the lower limit of quantitation	approximately one-half	0.020–0.038 min^1		
CN(C)CCc1c[nH]c2cccc(OP(=O)(O)O)c12 [psilocybin]							5 to 50	
CC(=O)Oc1cccc2[nH]cc(CCN(C)C)c12 [psilacetin, 4-acetoxy-N,N-dimethyltryptamine]	1.12							10- to 20 fold
